Laboratory results as given in paper PMC12525867, “Aromaticity Tuning in Biaryl Monophosphines and Their Derivatives” (Molecules, 2025).
≈ marks a conversion by molar mass, not a printed value. Like-named read-outs stand apart in the source and are kept apart here.

Tests used:
K. pneumoniae ATCC 13883 = assay: Antibacterial screening, broth microdilution (MIC/MBC); type: cell-based, Klebsiella pneumoniae; settings: for MIC: K. pneumoniae ATCC 13883, MHB, 24 h, 35 °C
Method: (§1) The antimicrobial activities of a series of compounds 1–5 were tested through the utilization of seven reference species, encompassing both Gram-positive (Staphylococcus aureus ATCC 29213, Staphylococcus epidermidis ATCC 12228, Micrococcus luteus ATCC 10240) and Gram-negative (Escherichia coli ATCC 25922, Klebsiella pneumoniae ATCC 13883, Proteus mirabilis ATCC 12453, Acinetobacter baumannii ATCC 19606) bacteria as model microorganisms. For this purpose, microbial suspensions were prepared in sterile saline (0.85% NaCl) with an optical density of 0.5 McFarland standard, yielding a concentration of 150 × 10^6 CFU/mL (CFU, colony-forming units). All of the stock solutions of the tested compounds were dissolved in DMSO. Amoxicillin (Glentham Life Sciences Ltd., Corsham, UK) was used as a positive control.
(§2) The MIC values of the tested compounds were determined by serial twofold dilutions of 1–5 in Mueller Hinton Broth (MHB, Biomaxima, Lublin, Poland). The range of final 1–5 concentrations used was from 0.49 up to 1000 μg/mL, and for amoxicillin from 0.12 up to 250 μg/mL in the 96-well microtiter plates (Medlab, Raszyn, Poland), starting with 98 μL MHB and 2 μL bacterial inoculum added to each well. Positive controls consisted of 100 μL MHB in each well with the tested compounds at the same concentration range. The negative controls consisted of 100 μL of MHB only. Each set of tests and controls was established with three replicates. The microtiter plates were then subjected to an incubation period of 24 h at a temperature of 35 ± 2 °C. After incubation, the optical density of the microbial growth was measured at a wavelength of 600 nm using a microplate reader, the Biotek Elx800 (BioTek Instruments, Inc., Winooski, VT, USA). The MIC value was defined as the lowest concentration of the tested compound at which there was no visible growth of the tested microorganisms. The determination of the MIC values was achieved by employing the broth microdilution method, in accordance with the recommendations of the European Committee on Antimicrobial Susceptibility Testing (EUCAST). […] Then, the MHA plates were incubated overnight at 35 ± 2 °C. […] The MIC and MBC values were reported in μg/mL, according to the EUCAST reference.

[1] = system: S. epidermidis ATCC 12228; assay: as above; type: cell-based, Staphylococcus epidermidis; settings: for MIC: S. epidermidis ATCC 12228, MHB, 24 h, 35 °C
Method: as §1, §2

S. aureus ATCC 29213 = assay: as above; type: cell-based, Staphylococcus aureus; settings: for MBC: S. aureus ATCC 29213; for MIC: S. aureus ATCC 29213, MHB, 24 h, 35 °C
Method: as §1, §2

E. coli ATCC 25922 = assay: as above; type: cell-based, Escherichia coli; settings: for MIC: E. coli ATCC 25922, MHB, 24 h, 35 °C
Method: as §1, §2

A. baumannii ATCC 19606 = assay: as above; type: cell-based, Acinetobacter baumannii; settings: for MIC: A. baumannii ATCC 19606, MHB, 24 h, 35 °C
Method: as §1, §2

VERO cells = assay: Cytotoxicity, microculture tetrazolium (MTT) test, VERO; type: cell-based
Method: (§3) The cytotoxicity of biaryl monophosphines was tested in vitro in normal (VERO) and cancer-derived (H1HeLa) cells after 24 h of incubation using a microculture tetrazolium test. Table 2 presents the CC50 (concentrations decreasing the cellular viability by 50%) values calculated from dose–response cytotoxicity curves (Figure 4).
(§4) Cytotoxicity was evaluated using a microculture tetrazolium test as previously described, and details can be found in the Supplementary Materials. The cell lines used in the presented study were acquired from the American Type Culture Collection (ATCC); the one used for cytotoxicity testing included non-cancerous VERO (kidney; ATCC CCL-81) cells and cancer-originating H1HeLa (cervical adenocarcinoma; ATCC CRL-1958) cells. VERO cells were cultured in Dulbecco’s Modified Eagle’s Medium (DMEM; Corning, Tewksbury, MA, USA), while Eagle’s Minimum Essential Medium (MEM; Corning) was used for H1HeLa. Antibiotics (penicillin–streptomycin solution, Corning) and fetal bovine serum (FBS, Corning) were added to cell media. Cells were incubated in a 5% CO2 atmosphere at 37 °C (CO2 incubator, Panasonic Healthcare Co., Tokyo, Japan). Briefly, the monolayers of VERO or H1HeLa cells in 96-well plates (Falcon, Corning) were treated with serial dilutions of selected compounds for 24 h. After this, the medium was removed, the plates were washed with phosphate buffered saline (PBS; Corning), a 10% solution of (3-(4,5-dimethylthiazol-2-yl)-2,5-diphenyltetrazolium bromide (MTT; Sigma-Aldrich, St. Louis, MO, USA) (5 mg/mL) in FBS-free cell media was added, and the incubation continued for the next 4 h. Subsequently, the precipitated formazan crystals were dissolved, and after overnight incubation at 37 °C, the Synergy H1 Multi-Mode Microplate Reader (BioTek Instruments, Inc., Winooski, VT, USA) with Gen5 software (ver. 3.09.07; BioTek Instruments, Inc.) was used for absorbance acquisition (540 and 620 nm). Data was exported to GraphPad Prism (ver. 10) to calculate the CC50 values (50% cytotoxic concentration) from dose–response curves.
(§5) Aromaticity Tuning in Biaryl Monophosphines and Their Derivatives […]
(§6) Cell line maintenance and in vitro experiments
(§7) The cytotoxicity of selected biaryl monophosphines was evaluated in vitro towards normal VERO (ATCC, CCL-81) cells and cancer-derived cell line H1HeLa (cervical adenocarcinoma; ATCC (American Type Culture Collection) CRL-1958) using 3-(4,5-dimethylthiazol-2-yl)-2,5-diphenylte-trazolium bromide (MTT) based protocol.
(§8) Media used for in vitro culturing included Dulbecco's Modified Eagle's Medium (DMEM, Corning, Tewksbury, MA, USA) used for VERO cells and Modified Eagle Medium (MEM, Corning) used for H1HeLa. Cell media used in the experiments were supplemented with antibiotics (Penicil-lin-Streptomycin Solution, Corning) and fetal bovine serum (FBS, Corning) – 10% (cell passaging) and 2% (cell maintenance and experiments). Phosphate-buffered saline (PBS) and trypsin were bought from Corning, whereas MTT (3-(4,5-dimethylthiazol-2-yl)-2,5-diphenyltetrazolium bromide) from Sigma (Sigma-Aldrich, St. Louis, MO, USA). SDS was purchased from PanReac Applichem (Darmstadt, Germany). Incubation was carried out in a 5% CO2 atmosphere at 37°C (CO2 incubator, Panasonic Healthcare Co., Tokyo, Japan).
(§9) Concentrations of cells for passaging were as follows: VERO – 1.5*10^5 cells/mL, H1HeLa – 2*10^5 cells/mL. Routine observations of cell cultures and experiments were carried out using an in-verted microscope (CKX41, Olympus Corporation, Tokyo, Japan) equipped with a ca mera (Moti-cam 3+, Motic, Hong Kong), and the results were recorded (Motic Images Plus 2.0, Motic).
(§10) Stock solutions of biaryl monophosphines were prepared by dissolving the samples in cell culture grade DMSO (PanReac Applichem).
(§11) Evaluation of cytotoxicity
(§12) Cytotoxicity was tested using an MTT-based protocol. The cells were passaged into 96-well plates (Falcon, TC-treated, Corning) and, after overnight incubation, treated with serial dilutions of […]

M. luteus ATCC 10240 = assay: Antibacterial screening, broth microdilution (MIC/MBC); type: cell-based, Micrococcus luteus; settings: for MBC: M. luteus ATCC 10240; for MIC: ATCC10240, 24 h, M. luteus ATCC 10240, MHB, 24 h, 35 °C
Method: as §1, §2

P. mirabilis ATCC 12453 = assay: as above; type: cell-based, Proteus mirabilis; settings: for MIC: P. mirabilis ATCC 12453, MHB, 24 h, 35 °C
Method: as §1, §2

H1HeLa cells = assay: Cytotoxicity, microculture tetrazolium (MTT) test, H1HeLa; type: cell-based
Method: as §3, §4, §5, §6, §7, §8, §9, §10, §11, §12

[2] = Cytotoxicity, microculture tetrazolium (MTT) test, VERO; type: cell-based; settings: African green monkey, ATCC CCL-81; VERO (normal kidney cells), 24 h incubation, MTT; ± SD
Method: as §3, §4, §5, §6, §7, §8, §9, §10, §11, §12

[3] = Cytotoxicity, microculture tetrazolium (MTT) test, H1HeLa; type: cell-based; settings: human, H1HeLa cells (cervical adenocarcinoma, ATCC CRL-1958); H1HeLa (cervical adenocarcinoma), 24 h incubation, MTT; ± SD
Method: as §3, §4, §5, §6, §7, §8, §9, §10, §11, §12

[4] = Klebsiella pneumoniae, ATCC13883, read-out: MIC
[5] = Staphylococcus epidermidis, ATCC12228, read-out: MIC
[6] = Staphylococcus epidermidis, ATCC12228, S. epidermidis ATCC 12228, read-out: MBC
[7] = Staphylococcus aureus, ATCC29213, read-out: MIC
[8] = Staphylococcus aureus, ATCC29213, read-out: MBC
[9] = Escherichia coli, ATCC25922, read-out: MIC
[10] = Acinetobacter baumannii, ATCC19606, read-out: MIC
[11] = Micrococcus luteus, ATCC10240, read-out: MBC
[12] = Proteus mirabilis, ATCC12453, read-out: MIC

Compound | MIC (K. pneumoniae ATCC 13883; [4]) | MIC [1, 5] | MBC [1, 6] | MIC (S. aureus ATCC 29213; [7]) | MBC (S. aureus ATCC 29213; [8]) | MIC (E. coli ATCC 25922; [9]) | MIC (A. baumannii ATCC 19606; [10]) | MIC (M. luteus ATCC 10240; Micrococcus luteus) | MBC (M. luteus ATCC 10240; [11]) | MIC (P. mirabilis ATCC 12453; [12]) | other results
Dicyclohexyl[1,4-dimethoxy-3-(2,4,6-trimethoxyphenyl)naphthalen-2-yl]phosphane [Compound 5] |  |  |  |  |  |  |  |  |  |  | MIC (K. pneumoniae ATCC 13883): >1000 µg/mL; MBC ([1]; S. epidermidis ATCC 12228): 1000 µg/mL; type of activity (bactericidal or bacteriostatic) ([1]; S. epidermidis ATCC 12228): bactericidal; MIC [1]: 31.25 to 62.5 µg/mL; MBC (S. aureus ATCC 29213): >1000 µg/mL; MIC (S. aureus ATCC 29213): 125 to 250 µg/mL; MIC (E. coli ATCC 25922): >1000 µg/mL; MIC (A. baumannii ATCC 19606): 1000 µg/mL; CC50 (VERO cells): 89.88 ± 4.11 µg/mL; MBC (M. luteus ATCC 10240): 125 µg/mL; MIC (P. mirabilis ATCC 12453): >1000 µg/mL; CC50 (H1HeLa cells): 200.85 ± 13.08 µg/mL
CC1(C)S[C@@H]2[C@H](NC(=O)[C@H](N)c3ccc(O)cc3)C(=O)N2[C@H]1C(=O)O [Amox, Amoxicillin, reference compound] | 250 µg/mL (≈ 684 µM) | 31.2 µg/mL (≈ 85.5 µM) | 31.2 µg/mL (≈ 85.5 µM) | 0.98 µg/mL (≈ 2.68 µM) | 0.98 µg/mL (≈ 2.68 µM) | 3.91 µg/mL (≈ 10.7 µM) | 125 µg/mL (≈ 342 µM) | 31.2 µg/mL (≈ 85.5 µM) | 31.2 µg/mL (≈ 85.5 µM) | 0.49 µg/mL (≈ 1.34 µM) | MBC (K. pneumoniae ATCC 13883; Klebsiella pneumoniae, ATCC13883, K. pneumoniae ATCC 13883): 250 µg/mL (≈ 684 µM); MBC (E. coli ATCC 25922; Escherichia coli, ATCC25922, E. coli ATCC 25922): 7.81 µg/mL (≈ 21.4 µM); MBC (A. baumannii ATCC 19606; Acinetobacter baumannii, ATCC19606, A. baumannii ATCC 19606): 125 µg/mL (≈ 342 µM); MBC (P. mirabilis ATCC 12453; Proteus mirabilis, ATCC12453, P. mirabilis ATCC 12453): 0.49 µg/mL (≈ 1.34 µM)
COc1ccccc1-c1c(P(=O)(C2CCCCC2)C2CCCCC2)c(O)c2ccccc2c1O [Compound 4, 2-(Dicyclohexylphosphoryl)-3-(2-methoxyphenyl)naphthalene-1,4-diol] | 500 µg/mL (≈ 1040 µM) | 500 µg/mL (≈ 1040 µM) | > 1000 µg/mL | 250 µg/mL (≈ 522 µM) | > 1000 µg/mL | 500 to 1000 µg/mL (≈ 1040 to 2090 µM) | 1000 µg/mL (≈ 2090 µM) | 15.6 to 31.2 µg/mL (≈ 32.7 to 65.3 µM) | > 1000 µg/mL | 1000 µg/mL (≈ 2090 µM) | CC50 at 24 h [2]: 4.7 ± 0.41 µg/mL; CC50 at 24 h [3]: 5.53 ± 0.12 µg/mL
